This assay relates to HBV rcDNA. Nature of the assay: HepDE19 assay with bDNA quantitation of HBV rcDNA. In kind it is cell-based, hepatitis B virus (HBV). On the procedure:
HepDE19 assay with bDNA quantitation of HBV rcDNA:
HepDE19 (50,000 cells/well) were plated in 96-well collagen-coated tissue-culture treated microtiter plates in DMEM/F12 medium supplemented with 10% fetal bovine serum, 1% penicillin-streptomycin and 1 μg/mL tetracycline and incubated in a humidified incubator at 37° C. and 5% CO2 overnight. Next day, the cells were switched to fresh medium without tetracycline and incubated for 4 hours at 37° C. and 5% CO2. […] The final DMSO concentration in the assay was 0.5%. The plates were incubated for 7 days in a humidified incubator at 37° C. and 5% CO2. Following a 7 day-incubation, the level of rcDNA present in the inhibitor-treated wells was measured using a Quantigene 2.0 bDNA assay kit (Affymetrix, Santa Clara, CA) with HBV specific custom probe set and manufacturers instructions. Concurrently, the effect of compounds on cell viability was assessed using replicate plates, plated at a density of 5,000 cells/well and incubated for 4 days, to determine the ATP content as a measure of cell viability using the cell-titer glo reagent (CTG; Promega Corporation, Madison, WI) as per manufacturer's instructions.

Where [1] appears, read: HepDE19 cells, 7 day incubation, rcDNA measured by Quantigene 2.0 bDNA assay, top concentration 25 μM; read-out: DE-19bDNA EC50.
Where [2] appears, read: read-out: DE-19bDNA EC50; HepDE19 cells, 7 day incubation, rcDNA measured by Quantigene 2.0 bDNA assay, top concentration 25 μM.
The mark [3] stands for this setting: Hepatitis B virus, HepDE19, 168 h, HepDE19 cells, 7 day incubation, rcDNA measured by Quantigene 2.0 bDNA assay, top concentration 25 μM; read-out: DE-19bDNA EC50.

Read-outs that look alike come from different tables or passages of the source.

Regarding `CC(c1c[nH]c(=O)c2cc(F)c(F)cc12)N(C)C(=O)c1cn2ccccc2n1` (single isomer, unassigned) [Compound 45, N-(1-(6,7-Difluoro-1-oxo-1,2-dihydroisoquinolin-4-yl)ethyl)-N-methylimidazo[1,2-a]pyridine-2-carboxamide], the EC50 under setting [1] stood at 2.5 µM. Same read-out and setting: the value for `CC(c1c[nH]c(=O)c2cc(F)c(F)cc12)N(C)C(=O)c1cn2ccccc2n1` (single isomer, unassigned) [Compound 46, N-(1-(6,7-Difluoro-1-oxo-1,2-dihydroisoquinolin-4-yl)ethyl)-N-methylimidazo[1,2-a]pyridine-2-carboxamide] was 21 µM; that for `CC(c1c[nH]c(=O)c2cc(F)c(F)cc12)N(C)C(=O)c1cc2c([nH]1)CCC2` (single isomer, unassigned) [Compound 47, N-(1-(6,7-Difluoro-1-oxo-1,2-dihydroisoquinolin-4-yl)ethyl)-N-methyl-1,4,5,6-tetrahydro cyclopenta[b]pyrrole-2-carboxamide] was ≥ 25 µM; that for `CC(c1c[nH]c(=O)c2cc(F)c(F)cc12)N(C)C(=O)c1cc2c([nH]1)CCC2` (single isomer, unassigned) [Compound 48, N-(1-(6,7-Difluoro-1-oxo-1,2-dihydroisoquinolin-4-yl)ethyl)-N-methyl-1,4,5,6-tetrahydro cyclopenta[b]pyrrole-2-carboxamide] was 0.15 µM. Consider `CC(c1c[nH]c(=O)c2cc(F)c(F)cc12)N(C)C(=O)c1nc2cc(F)c(F)cc2[nH]1` (single isomer, unassigned) [Compound 49, N-(1-(6,7-Difluoro-1-oxo-1,2-dihydroisoquinolin-4-yl)ethyl)-5,6-difluoro-N-methyl-1H-benzo[d]imidazole-2-carboxamide], for which the EC50 under setting [1] was found to be 3.1 µM. On the same count and under the same terms, the same measure for `CC(c1c[nH]c(=O)c2cc(F)c(F)cc12)N(C)C(=O)c1nc2cc(F)c(F)cc2[nH]1` (single isomer, unassigned) [Compound 50, N-(1-(6,7-Difluoro-1-oxo-1,2-dihydroisoquinolin-4-yl)ethyl)-5,6-difluoro-N-methyl-1H-benzo[d]imidazole-2-carboxamide]: 0.29 µM. `CC(c1c[nH]c(=O)c2cc(F)c(F)cc12)N(C)C(=O)c1cc2cccnc2[nH]1` (single isomer, unassigned) [Compound 51, N-(1-(6,7-Difluoro-1-oxo-1,2-dihydroisoquinolin-4-yl)ethyl)-N-methyl-1H-pyrrolo[2,3-b]pyridine-2-carboxamide]: under setting [2], the EC50 stood at 0.79 µM. On the same count and under the same terms, the same measure for `CC(c1c[nH]c(=O)c2cc(F)c(F)cc12)N(C)C(=O)c1cc2cccnc2[nH]1` (single isomer, unassigned) [Compound 52, N-(1-(6,7-Difluoro-1-oxo-1,2-dihydroisoquinolin-4-yl)ethyl)-N-methyl-1H-pyrrolo[2,3-b]pyridine-2-carboxamide]: ≥ 25 µM. In the case of `CC(c1c[nH]c(=O)c2cc(F)c(F)cc12)N(C)C(=O)c1c[nH]c2ccccc12` (single isomer, unassigned) [Compound 53, N-(1-(6,7-Difluoro-1-oxo-1,2-dihydroisoquinolin-4-yl)ethyl)-N-methyl-1H-indole-3-carboxamide], under setting [1], the EC50 is ≥ 25 µM. The same measure, in the same setting: the value for `CC(c1c[nH]c(=O)c2cc(F)c(F)cc12)N(C)C(=O)c1c[nH]c2ccccc12` (single isomer, unassigned) [Compound 54, N-(1-(6,7-Difluoro-1-oxo-1,2-dihydroisoquinolin-4-yl)ethyl)-N-methyl-1H-indole-3-carboxamide] was 5.1 µM. On to `CC(c1c[nH]c(=O)c2cc(F)c(F)cc12)N(C)C(=O)c1n[nH]c2ccccc12` (single isomer, unassigned) [Compound 55, N-(1-(6,7-Difluoro-1-oxo-1,2-dihydroisoquinolin-4-yl)ethyl)-N-methyl-2H-indazole-3-carboxamide], for which the EC50 under setting [3] was 16 µM.

With `CC(c1c[nH]c(=O)c2cc(F)c(F)cc12)N(C)C(=O)c1n[nH]c2ccccc12` (single isomer, unassigned) [Compound 56, N-(1-(6,7-Difluoro-1-oxo-1,2-dihydroisoquinolin-4-yl)ethyl)-N-methyl-2H-indazole-3-carboxamide], the EC50 under setting [1] is ≥ 25 µM. Still for that read-out and setting: the value for `CC(c1c[nH]c(=O)c2c(F)c(F)ccc12)N(C)C(=O)c1cc2c([nH]1)CCC2` (single isomer, unassigned) [Compound 57, N-(1-(7,8-Difluoro-1-oxo-1,2-dihydroisoquinolin-4-yl)ethyl)-N-methyl-1,4,5,6-tetrahydrocyclopenta[b]pyrrole-2-carboxamide] was 12 µM. Same read-out and setting: the same measure for `CC(c1c[nH]c(=O)c2c(F)c(F)ccc12)N(C)C(=O)c1cc2c([nH]1)CCC2` (single isomer, unassigned) [Compound 58, N-(1-(7,8-Difluoro-1-oxo-1,2-dihydroisoquinolin-4-yl)ethyl)-N-methyl-1,4,5,6-tetrahydrocyclopenta[b]pyrrole-2-carboxamide]: 1.8 µM. For the molecule `CC(c1c[nH]c(=O)c2cc(F)c(F)cc12)N(C)C(=O)c1cc2ccccn2c1` (single isomer, unassigned) [Compound 69, N-(1-(6,7-Difluoro-1-oxo-1,2-dihydroisoquinolin-4-yl)ethyl)-N-methylindolizine-2-carboxamide], the half-maximal effective concentration (EC50) under setting [2] amounted to 5.7 µM. Take `CC(c1c[nH]c(=O)c2cc(F)c(F)cc12)N(C)C(=O)c1cc2ccccn2c1` (single isomer, unassigned) [Compound 70, N-(1-(6,7-Difluoro-1-oxo-1,2-dihydroisoquinolin-4-yl)ethyl)-N-methylindolizine-2-carboxamide]: the EC50 under setting [3] was found to be 0.02 µM.

As to `CC(c1c[nH]c(=O)c2c(F)c(F)ccc12)N(C)C(=O)c1cc2ccccn2c1` (single isomer, unassigned) [Compound 71, N-(1-(7,8-Difluoro-1-oxo-1,2-dihydroisoquinolin-4-yl)ethyl)-N-methylindolizine-2-carboxamide], under setting [2], the EC50 was determined as 6.5 µM. Consider `CC(c1c[nH]c(=O)c2c(F)c(F)ccc12)N(C)C(=O)c1cc2ccccn2c1` (single isomer, unassigned) [Compound 72, N-(1-(7,8-Difluoro-1-oxo-1,2-dihydroisoquinolin-4-yl)ethyl)-N-methylindolizine-2-carboxamide], for which the EC50 under setting [2] stood at 0.14 µM.

For the molecule `CC(c1c[nH]c(=O)c2cc(F)c(F)cc12)N(C)C(=O)c1cc2c(Cl)cccn2c1` (single isomer, unassigned) [Compound 77, 8-Chloro-N-(1-(6,7-difluoro-1-oxo-1,2-dihydroisoquinolin-4-yl)ethyl)-N-methylindolizine-2-carboxamide], the EC50 under setting [1] stood at 2 µM. Same read-out and setting: the same measure for `CC(c1c[nH]c(=O)c2cc(F)c(F)cc12)N(C)C(=O)c1cc2c(Cl)cccn2c1` (single isomer, unassigned) [Compound 78, 8-Chloro-N-(1-(6,7-difluoro-1-oxo-1,2-dihydroisoquinolin-4-yl)ethyl)-N-methylindolizine-2-carboxamide]: 0.01 µM. On the same count and under the same terms, the same measure for `CC(c1c[nH]c(=O)c2cc(F)c(F)cc12)N(C)C(=O)c1cc2c(F)cccn2c1` (single isomer, unassigned) [Compound 79, N-(1-(6,7-Difluoro-1-oxo-1,2-dihydroisoquinolin-4-yl)ethyl)-8-fluoro-N-methylindolizine-2-carboxamide]: 3.3 µM; for `CC(c1c[nH]c(=O)c2cc(F)c(F)cc12)N(C)C(=O)c1cc2c(F)cccn2c1` (single isomer, unassigned) [Compound 80, N-(1-(6,7-Difluoro-1-oxo-1,2-dihydroisoquinolin-4-yl)ethyl)-8-fluoro-N-methylindolizine-2-carboxamide]: 0.02 µM. The same measure, in the same setting: the same measure for `CC(c1c[nH]c(=O)c2c(F)c(F)ccc12)N(C)C(=O)c1cc2c(F)cccn2c1` (single isomer, unassigned) [Compound 81, N-(1-(7,8-Difluoro-1-oxo-1,2-dihydroisoquinolin-4-yl)ethyl)-8-fluoro-N-methylindolizine-2-carboxamide]: 2.1 µM; for `CC(c1c[nH]c(=O)c2c(F)c(F)ccc12)N(C)C(=O)c1cc2c(F)cccn2c1` (single isomer, unassigned) [Compound 82, N-(1-(7,8-Difluoro-1-oxo-1,2-dihydroisoquinolin-4-yl)ethyl)-8-fluoro-N-methylindolizine-2-carboxamide]: 0.07 µM.

Regarding `CC(c1c[nH]c(=O)c2cc(F)c(F)cc12)N(CCCO)C(=O)Cc1cc2ccccc2[nH]1` (single isomer, unassigned) [Compound 83, N-(1-(6,7-Difluoro-1-oxo-1,2-dihydroisoquinolin-4-yl)ethyl)-N-(3-hydroxypropyl)-2-(1H-indol-2-yl)acetamide], under setting [2], the concentration for a half-maximal effect (EC50) was ≥ 25 µM. On the same count and under the same terms, the value for `CC(c1c[nH]c(=O)c2cc(F)c(F)cc12)N(CCCO)C(=O)Cc1cc2ccccc2[nH]1` (single isomer, unassigned) [Compound 84, N-(1-(6,7-Difluoro-1-oxo-1,2-dihydroisoquinolin-4-yl)ethyl)-N-(3-hydroxypropyl)-2-(1H-indol-2-yl)acetamide] was 0.42 µM.

For the origin of these results see US20230295115A1, “SUBSTITUTED ISOQUINOLINYLMETHYL AMIDES, ANALOGUES THEREOF, AND METHODS USING SAME” (priority 2020, published 2023).
